{
  "source": "patent US20230109839A1",
  "about": "“THERAPEUTIC AGENT FOR TAUOPATHIES” (SUMITOMO PHARMA CO., LTD., priority 2020, published 2023)",
  "key": {"[1]": {"system": "intracerebral tau aggregate accumulation", "assay": "Intracerebral tau aggregate accumulation in rTg4510 mice, tau PET with [18F] PM-PBB3, SUVR (Test 5)", "assay_type": "in vivo, mouse", "text": "(§1) Test 5: Evaluation of Intracerebral Tau Aggregate Accumulation and Cerebral Atrophy Using rTg4510 Mice\n(§2) This test is a test to evaluate the effects of the compounds on intracerebral tau aggregate accumulation and cerebral atrophy. The rTg4510 mice overexpress the human-type FTDP-17 mutant tau in the forebrain, and month-age-dependent intracerebral tau aggregate accumulation and cerebral atrophy are observed. The rTg4510 mice used herein were produced by mating Tg (tauP301L) 4510 mice (Stock No. 015815) and CaMKII-tTA mice (Stock No. 007004) purchased from The Jackson Laboratory and breeding them.\n(§3) The test compound was administered as a mixed diet to rTg4510 mice from the age of 4 months, and PET scan and MRI were performed at the ages of 4, 6 and 8 months to quantitatively evaluate the amount of the intracerebral tau aggregate accumulated and cerebral atrophy. The PET scan was performed using MicroPET Focus 220 of Siemens Medical Solutions (0.851 mm thick (intercenter) 95 slices, 19.0 cm axial field of view (FOV), and 7.6 cm intra-section FOV). The administration of radioactive compound [^18F] PM-PBB3 (precursor obtained from Aprinoia) and the PET scan were performed in dimly lit after the mice was treated with 1.5% isoflurane anesthesia to avoid […] of the radioactive compound. The emission scan was performed for 60 minutes immediately after the intravenous administration of [^18F] PM-PBB3 (1 mCi) (3D list mode, energy window: 350-750 keV). Then, the list mode data sorted into 3D synograms were converted into 2D synograms by Fourier-rebinding (frames: 4×1, 8×2 and 8×5 minutes). The dynamic image for 60 minutes after the administration of [^18F] PM-PBB3 was reconstructed by a filter-corrected back projection with a 0.5 mm Hanning filter. Regions of interest (ROI) were set in multiple brain regions using PMOD image analysis software (PMOD Technology) with reference to the MRI templates and the PET reconstructed images. Tau aggregate accumulation was evaluated by calculating SUVR (Standardized uptake value ratio) with the cerebellum as a reference region, based on the added average of dynamic images from 40 minutes to 60 minutes."}, "[2]": {"system": "rTg4510 mice", "assay": "Cerebral atrophy in rTg4510 mice, MRI volume of brain regions (Test 5)", "assay_type": "in vivo, mouse", "conditions": "for volume cerebellum / volume cerebral neocortex / volume hippocampus / volume lateral ventricle: 5.8 mg/g-food from the age of 4 months; for age-dependent increase in lateral ventricular volume vs non-administration group: mixed diet 3 mg/g-food with ABT 1 mg/g-food", "text": "as §1, §2, §3\nThe evaluation of cerebral atrophy was performed with horizontal superconducting magnet type MRI (7T, inner diameter 400 mm, self-shielding type, zero boil-off type). The imaging was performed under isoflurane anesthesia while maintaining the rectal temperature at 36.5±0.5° C. After Tripilot acquisition, the brain images were acquired by TurboRARE T2 emphasis sequence (TR: 4200 ms, TE: 36 ms, Fat-Sup: on, NA: 4, RARE factor: 8, scan time: 14 min) (FOV read: 25.6 mm, FOV P1: 14.5 mm, Slice thickness: 0.5 mm, number of slices: 28). The ROI of each brain region was set in each of the acquired slices, and the volume of the brain region was calculated by summing the ROI areas of all the slices to evaluate the effect of the test compound."}, "[3]": {"target": "T1, human Nav1.1 (Homo sapiens, UniProt P35498)", "T1 construct": "host or cells: HEK293", "assay": "Amplification of Nav1.1-derived voltage-gated sodium current (Nav1.1 current), automated patch clamp (Test 1)", "assay_type": "cell-based", "conditions": "HEK293, Concentration for evaluation 1 μM; HEK293 cell line stably expressing human Nav1.1; read-out: Nav1.1 current amplification rate (%)", "in_short": "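HEK293 cells stably expressing human Nav1.1, restricted to cells with >500 pA current, were recorded by automated voltage-clamp patch clamp with a ramp voltage stimulus. Compounds were applied in HEPES-buffered extracellular solution with 1% DMSO. Amplification (%) = 100×(peak or AUC after/before compound)−100.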"}, "[4]": {"conditions": "4 month old, 5.8 mg/g-food from the age of 4 months"}, "[5]": {"conditions": "6 month old, 5.8 mg/g-food from the age of 4 months"}, "[6]": {"conditions": "8 month old, 5.8 mg/g-food from the age of 4 months"}, "[7]": {"conditions": "diet 5.8 mg/g-food from the age of 4 months"}, "[8]": {"conditions": "diet 5.8 mg/g-food from the age of 4 months, ages 4, 6 and 8 months, vs non-administration group"}, "[9]": {"conditions": "mixed diet 0.7 and 6.6 mg/g-food"}, "[10]": {"conditions": "4 month old, 3 mg/g-food, with ABT 1 mg/g-food"}, "[11]": {"conditions": "6 month old, 3 mg/g-food, with ABT 1 mg/g-food"}, "[12]": {"conditions": "8 month old, 3 mg/g-food, with ABT 1 mg/g-food"}},
  "data": [
    {"smiles": "CC1CCN(c2ccc(=O)n(CC(=O)Nc3ccc(C#N)cc3)n2)CC1", "note": "[Example 1, N-(4-Cyanophenyl)-2-[3-(4-methylpiperidin-1-yl)-6-oxopyridazin-1(6H)-yl]acetamide]", "values": [
      {"measurement": "SUVR(cerebellum ratio) cerebral neocortex", "setting": "[1]; [4]", "result": "0.986 ± 0.009"},
      {"measurement": "SUVR(cerebellum ratio) hippocampus", "setting": "[1]; [4]", "result": "1.078 ± 0.009"},
      {"measurement": "SUVR(cerebellum ratio) cerebral neocortex", "setting": "[1]; [5]", "result": "1.098 ± 0.013"},
      {"measurement": "SUVR(cerebellum ratio) hippocampus", "setting": "[1]; [5]", "result": "1.182 ± 0.016"},
      {"measurement": "SUVR(cerebellum ratio) cerebral neocortex", "setting": "[1]; [6]", "result": "1.184 ± 0.017"},
      {"measurement": "SUVR(cerebellum ratio) hippocampus", "setting": "[1]; [6]", "result": "1.284 ± 0.024"},
      {"measurement": "age-dependent increase in SUVR in the cerebral neocortex and hippocampus (FIG. 3)", "setting": "[1]; [7]", "result": "statistically significantly suppressed"},
      {"measurement": "increase in tau PET tracer accumulation in each region with aging (SUVR average images, FIG. 1)", "setting": "[1]; [8]", "result": "significantly suppressed"},
      {"measurement": "volume cerebellum", "setting": "[2]; 4 month old", "result": "34.3 ± 0.19", "unit": "mm^3"},
      {"measurement": "volume cerebral neocortex", "setting": "[2]; 4 month old", "result": "60.1 ± 0.49", "unit": "mm^3"},
      {"measurement": "volume hippocampus", "setting": "[2]; 4 month old", "result": "14.0 ± 0.13", "unit": "mm^3"},
      {"measurement": "volume lateral ventricle", "setting": "[2]; 4 month old", "result": "0.79 ± 0.014", "unit": "mm^3"},
      {"measurement": "volume cerebellum", "setting": "[2]; 6 month old", "result": "33.9 ± 0.18", "unit": "mm^3"},
      {"measurement": "volume cerebral neocortex", "setting": "[2]; 6 month old", "result": "50.9 ± 0.98", "unit": "mm^3"},
      {"measurement": "volume hippocampus", "setting": "[2]; 6 month old", "result": "12.6 ± 0.22", "unit": "mm^3"},
      {"measurement": "volume lateral ventricle", "setting": "[2]; 6 month old", "result": "1.70 ± 0.312", "unit": "mm^3"},
      {"measurement": "volume cerebellum", "setting": "[2]; 8 month old", "result": "33.4 ± 0.33", "unit": "mm^3"},
      {"measurement": "volume cerebral neocortex", "setting": "[2]; 8 month old", "result": "45.3 ± 1.13", "unit": "mm^3"},
      {"measurement": "volume hippocampus", "setting": "[2]; 8 month old", "result": "12.7 ± 0.12", "unit": "mm^3"},
      {"measurement": "volume lateral ventricle", "setting": "[2]; 8 month old", "result": "0.61 ± 0.036", "unit": "mm^3"},
      {"measurement": "age-dependent cerebral atrophy in the cerebral neocortex and hippocampus (volume, FIG. 2)", "setting": "[2]; [7]", "result": "statistically significantly suppressed"},
      {"measurement": "age-dependent increase in the lateral ventricular volume (FIG. 2)", "setting": "[2]; [7]", "result": "statistically significantly suppressed"},
      {"measurement": "cerebral atrophy and enlargement of the lateral ventricle with aging (T2-weighted images, FIG. 1)", "setting": "[2]; [8]", "result": "significantly suppressed"}
    ]},
    {"smiles": "CC1CC=C(c2cnc3cnn(CC(=O)Nc4ccn5ncnc5c4)c3n2)CC1", "note": "(stereo not drawn) [Example 577, 2-[6-(4-methylcyclohex-1-en-1-yl)-1H-pyrazolo[3,4-b]pyrazin-1-yl]-N-([1,2,4]triazolo[1,5-a]pyridin-7-yl)acetamide]", "values": [
      {"measurement": "individuals that did not show any increase in the SUVR from the age of 6 months to the age of 8 months", "setting": "[1]; mixed diet 0.7 mg/g-hood administration group", "result": "3 out of 5"},
      {"measurement": "individuals that did not show any increase in the SUVR from the age of 6 months to the age of 8 months", "setting": "[1]; mixed diet 6.6 mg/g-hood administration group", "result": "3 out of 6"},
      {"measurement": "accumulation of tau aggregates (suggested from SUVR)", "setting": "[1]; [9]", "result": "suppressed"},
      {"measurement": "suppression of cerebral atrophy", "setting": "[2]; [9]", "result": "no suppression"},
      {"measurement": "activation at 1 µM", "setting": "[3]", "result": 249, "unit": "%"}
    ]},
    {"smiles": "CN(c1ncc2cnn(CC(=O)Nc3ccn4ncnc4c3)c2n1)C1CCCC1", "note": "[Example 795, 2-{6-[cyclopentyl(methyl)amino]-1H-pyrazolo[3,4-d]pyrimidin-1-yl}-N-([1,2,4]triazolo[1,5-a]pyridin-7-yl)acetamide]", "values": [
      {"measurement": "SUVR(cerebellum ratio) cerebral neocortex", "setting": "[1]; [10]", "result": "1.023 ± 0.009"},
      {"measurement": "SUVR(cerebellum ratio) hippocampus", "setting": "[1]; [10]", "result": "1.134 ± 0.042"},
      {"measurement": "SUVR(cerebellum ratio) cerebral neocortex", "setting": "[1]; [11]", "result": "1.149 ± 0.031"},
      {"measurement": "SUVR(cerebellum ratio) hippocampus", "setting": "[1]; [11]", "result": "1.308 ± 0.044"},
      {"measurement": "SUVR(cerebellum ratio) cerebral neocortex", "setting": "[1]; [12]", "result": "1.268 ± 0.036"},
      {"measurement": "SUVR(cerebellum ratio) hippocampus", "setting": "[1]; [12]", "result": "1.419 ± 0.048"},
      {"measurement": "age-dependent increase in SUVR in the cerebral neocortex and hippocampus (FIG. 5)", "setting": "[1]; mixed diet 3 mg/g-food with ABT 1 mg/g-food", "result": "tended to be suppressed"},
      {"measurement": "increase in PET tracer accumulation in each brain region with aging (average SUVR images, FIG. 4)", "setting": "[1]; mixed diet 3 mg/g-food with ABT 1 mg/g-food, ages 4, 6 and 8 months", "result": "suppressed"},
      {"measurement": "age-dependent increase in lateral ventricular volume vs non-administration group", "setting": "[2]; at the age of 6 months", "result": "tendency to suppress"},
      {"measurement": "age-dependent increase in lateral ventricular volume vs non-administration group", "setting": "[2]; at the age of 8 months", "result": "not different"},
      {"measurement": "activation at 1 µM", "setting": "[3]", "result": 111, "unit": "%"}
    ]}
  ]
}
